This note sets out measurements from US7015236B2, “N-heteroarylnicotinamide derivatives” (Sankyo Agro Company, Limited, priority 2001, dated 2006).

Bounds are passed on as bounds.

Assay [1] deals with green peach aphid (Myzus persicae). As to the kind of experiment: Insecticidal test for green peach aphid (10 ppm and 3 ppm), Test Example 2. It counts as in vivo. The note with it: same manner as Test Example 1; for mortality at 3 ppm: Chemical concentration of spray 3 ppm; for mortality at 10 ppm: Chemical concentration of spray 10 ppm. The protocol:
(§1) Water (30 ml) was put into a beaker, and a leaf of Komatsuna (Brassica var. rapa) was placed within the beaker such that the stem was immersed in water. On the leaf of Komatsuna, five green peach aphids were released and allowed to fertilize. Two days after the releasing, imagoes were removed and the number of larvae was counted.
(§2) A surfactant Newcol NE-710F (trademark, produced by Nippon Nyukazai Co., Ltd., 2%) was dissolved in aqueous acetone (95% aqueous solution, 98%) to prepare solution 1. Next, a dispersant Gousenol GLO5-S (trademark, produced by Nippon Nyukazai Co., Ltd., 0.2% aqueous solution, 0.2%) was dissolved in water (99.8%) to prepare solution 2.
(§3) To each of the compounds (8 mg) of the present invention, the above solution 1 (0.4 ml), the above solution 2 (0.4 ml) and water (8 ml) were added. Further, the compounds of the present invention were each diluted with water so that the concentration of each compound was 100 ppm {as a spreading agent, Gramin S (trademark, produced by Sankyo Co., Ltd.) was added so as to have a concentration of 0.01%}.
(§4) The above chemical liquid (8 ml) was sprayed on the leaf of Komatsuna by use of a rotary spraying tower. The leaf of Komatsuna was put back in the beaker. Then, the beaker was placed in a thermostatic chamber of 25° C. for 16 hours in the light and for 8 hours in the dark. 5 Days after the spraying, the number of dead insects was counted to calculate the mortality (%).
Insecticidal Test for Green Peach Aphid (Myzus persicae) (10 ppm and 3 ppm)
The test was carried out in the same manner as in Test Example 1 except for setting the dilution concentration to 10 ppm and 3 ppm. Incidentally, Comparative Compound a and Comparative Compound b (Compound No. 6) listed in Table 1 of Japanese Provisional Patent Publication No. Hei 10-195072 were used as a comparison. [drawing 25]

Assay [2] has the same test system. In words: Insecticidal test for green peach aphid (100 ppm), Test Example 1. To be noted: 120 h, 100 ppm spray on Komatsuna leaf, larvae, counted 5 days after spraying, 25° C., read-out: mortality (%). It counts as in vivo. The protocol:
Insecticidal test for green peach aphid (Myzus persicae) (100 ppm)
as §1, §2, §3, §4

As usually defined, the mortality is the share of the test organisms that died.

For `O=C(Nc1nncs1)c1cnccc1C(F)(F)F` [Comparative Compound b, reference compound], in assay [1], the mortality at 3 ppm was determined as 0% and the mortality at 10 ppm is 0%.

For `Cc1cc(NC(=O)c2cnccc2C(F)(F)F)on1` [Example 1, N-(3-Methyl-5-isoxazolyl)-4-(trifluoromethyl)nicotinamide], the mortality at 100 ppm in assay [2] is not below 95%. For the same molecule, in assay [1], the mortality at 3 ppm amounted to 100% and the mortality at 10 ppm was 100%.

For `O=C(Nc1ccno1)c1cnccc1C(F)(F)F` [Example 4, N-(5-Isoxazolyl)-4-(trifluoromethyl)nicotinamide], in assay [2], the mortality at 100 ppm was not below 95%. In addition, in assay [1], the mortality at 3 ppm is 100% and the mortality at 10 ppm is 100%.

For `O=C(Nc1oncc1C1CCCCC1)c1cnccc1C(F)(F)F` [Example 65, N-(4-Cyclohexyl-5-isoxazolyl)-4-(trifluoromethyl)nicotinamide], the mortality at 100 ppm in assay [2] is not below 95%.

For the molecule `O=C(Nc1oncc1C1CC1)c1cnccc1C(F)(F)F` [Example 37, N-(4-Cyclopropyl-5-isoxazolyl)-4-(trifluoromethyl)nicotinamide], the mortality at 100 ppm in assay [2] was not below 95%.

As to `Cc1noc(NC(=O)c2cnccc2C(F)(F)F)c1Cl` [Example 3, N-(4-Chloro-3-methyl-5-isoxazolyl)-4-(trifluoromethyl)nicotinamide], the mortality at 100 ppm in assay [2] is not below 95%.

Turning to `N#Cc1noc(NC(=O)c2cnccc2C(F)(F)F)c1F` [Example 23, N-(4-Fluoro-3-cyano-5-isoxazolyl)-4-(trifluoromethyl)nicotinamide], in assay [2], the mortality at 100 ppm was not below 95%.

`Cc1cnsc1N(C(=O)c1cnccc1C(F)(F)F)C(=O)c1cnccc1C(F)(F)F` [Example 50, 5-[N,N-Bis(4-trifluoromethylnicotinoyl)]amino-4-methylthioisoxazole]: the mortality at 100 ppm in assay [2] was not below 95%.

As for `COCc1noc(NC(=O)c2cnccc2C(F)(F)F)c1Cl` [Example 13, N-(4-Chloro-3-methoxymethyl-5-isoxazolyl)-4-(trifluoromethyl)nicotinamide], the mortality at 100 ppm in assay [2] is not below 95%.

On to `CSCN(C(=O)c1cnccc1C(F)(F)F)c1cc(C)no1` [Example 20, N-(3-Methyl-5-isoxazolyl)-N-methylthiomethyl-4-(trifluoromethyl)nicotinamide], for which the mortality at 100 ppm in assay [2] is not below 95%.

In the case of `Cc1noc(NC(=O)c2cnccc2C(F)(F)F)c1F` [Example 66, N-(4-Fluoro-3-methyl-5-isoxazolyl)-4-(trifluoromethyl)nicotinamide], the mortality at 100 ppm in assay [2] is not below 95%.

With `Cc1cnc(NC(=O)c2cnccc2C(F)(F)F)s1` [Comparative Compound a, reference compound], in assay [1], the mortality at 3 ppm came to 0% and the mortality at 10 ppm worked out at 6%.

`O=C(Nc1oncc1C1CCC1)c1cnccc1C(F)(F)F` [Example 41, N-(4-Cyclobutyl-5-isoxazolyl)-4-(trifluoromethyl)nicotinamide]: the mortality at 100 ppm in assay [2] is not below 95%.

As to `Cc1cc(N(CC#N)C(=O)c2cnccc2C(F)(F)F)on1` [Example 19, N-Cyanomethyl-N-(3-methyl-5-isoxazolyl)-4-(trifluoromethyl)nicotinamide], the mortality at 100 ppm in assay [2] was not below 95%.

Regarding `CCc1cc(NC(=O)c2cnccc2C(F)(F)F)on1` [Example 5, N-(3-Ethyl-5-isoxazolyl)-4-(trifluoromethyl)nicotinamide], the mortality at 100 ppm in assay [2] is not below 95%.

In the case of `CSc1cnoc1NC(=O)c1cnccc1C(F)(F)F` [Example 49, N-(4-Methylthio-5-isoxazolyl)-4-(trifluoromethyl)nicotinamide], in assay [2], the mortality at 100 ppm is not below 95%.

Regarding `O=C(Nc1oncc1Br)c1cnccc1C(F)(F)F` [Example 24, N-(4-Bromo-5-isoxazolyl)-4-(trifluoromethyl)nicotinamide], the mortality at 100 ppm in assay [2] was not below 95%.

Turning to `O=C(Nc1oncc1-c1ccc(OC(F)(F)F)cc1)c1cnccc1C(F)(F)F` [Example 58, N-[4-(4-Trifluoromethoxyphenyl)-5-isoxazolyl]-4-(trifluoromethyl)nicotinamide], the mortality at 100 ppm in assay [2] is not below 95%.

Consider `Cc1noc(NC(=O)c2cnccc2C(F)(F)F)c1Br` [Example 14, N-(4-Bromo-3-methyl-5-isoxazolyl)-4-(trifluoromethyl)nicotinamide], for which the mortality at 100 ppm in assay [2] is not below 95%.

Consider `C=CCc1cnoc1NC(=O)c1cnccc1C(F)(F)F` [Example 38, N-(4-Allyl-5-isoxazolyl)-4-(trifluoromethyl)nicotinamide], for which the mortality at 100 ppm in assay [2] is not below 95%.
